Where “and” joins values, the source holds several entries; their conditions need not be identical. Equal values may be shown once.
Settings: Gas, Frequency=0.05 MHz, Single path-length method

FC(F)(F)C(F)(F)C(F)(F)F [octafluoropropane]
Settings | speed of sound
251.1 K, 62.4 kPa | 106.76 m/s
251.1 K, 71.8 kPa | 106.39 m/s
251.1 K, 80.5 kPa | 106.08 m/s
251.1 K, 89.7 kPa | 105.72 m/s
251.1 K, 102 kPa | 105.24 m/s
251.1 K, 118.2 kPa | 104.61 m/s
251.1 K, 143.1 kPa | 103.57 m/s
251.1 K, 167.2 kPa | 102.56 m/s
256.3 K, 63.7 kPa | 107.91 m/s
256.3 K, 73.3 kPa | 107.57 m/s
256.3 K, 82.2 kPa | 107.26 m/s
256.3 K, 91.7 kPa | 106.91 m/s
256.3 K, 104.3 kPa | 106.47 m/s
256.3 K, 120.9 kPa | 105.85 m/s
256.3 K, 146.4 kPa | 104.86 m/s
256.3 K, 171.2 kPa | 103.89 m/s
256.3 K, 198.4 kPa | 102.79 m/s
256.3 K, 221.3 kPa | 101.83 m/s
261.6 K, 65.1 kPa | 109.07 m/s
261.6 K, 74.9 kPa | 108.75 m/s
261.6 K, 84 kPa | 108.44 m/s
261.6 K, 93.7 kPa | 108.11 m/s
261.6 K, 106.6 kPa | 107.67 m/s
261.6 K, 123.6 kPa | 107.08 m/s
261.6 K, 149.8 kPa | 106.13 m/s
261.6 K, 175.2 kPa | 105.21 m/s
261.6 K, 203.2 kPa | 104.16 m/s
261.6 K, 226.7 kPa | 103.22 m/s
261.6 K, 233.4 kPa | 102.97 m/s
261.6 K, 253.9 kPa | 102.14 m/s
266.8 K, 66.4 kPa | 110.2 m/s
266.8 K, 76.4 kPa | 109.87 m/s
266.8 K, 85.7 kPa | 109.58 m/s
266.8 K, 95.7 kPa | 109.25 m/s
266.8 K, 108.8 kPa | 108.83 m/s
266.8 K, 126.3 kPa | 108.28 m/s
266.8 K, 153 kPa | 107.37 m/s
266.8 K, 179.2 kPa | 106.48 m/s
266.8 K, 207.8 kPa | 105.46 m/s
266.8 K, 232.2 kPa | 104.58 m/s
266.8 K, 238.9 kPa | 104.32 m/s
266.8 K, 260 kPa | 103.52 m/s
272.1 K, 67.8 kPa | 111.33 m/s
272.1 K, 78 kPa | 111.03 m/s
272.1 K, 87.5 kPa | 110.74 m/s
272.1 K, 97.7 kPa | 110.44 m/s
272.1 K, 111.1 kPa | 110.02 m/s
272.1 K, 128.9 kPa | 109.46 m/s and 109.47 m/s
272.1 K, 156.4 kPa | 108.62 m/s and 108.61 m/s
272.1 K, 183.1 kPa | 107.74 m/s
272.1 K, 212.6 kPa | 106.77 m/s
272.1 K, 237.5 kPa | 105.93 m/s
272.1 K, 244.5 kPa | 105.69 m/s
272.1 K, 266.3 kPa | 104.92 m/s
277.4 K, 69.1 kPa | 112.44 m/s
277.4 K, 79.6 kPa | 112.15 m/s
277.4 K, 89.3 kPa | 111.87 m/s
277.4 K, 99.7 kPa | 111.58 m/s
277.4 K, 113.4 kPa | 111.18 m/s
277.4 K, 131.6 kPa | 110.66 m/s
277.4 K, 159.7 kPa | 109.81 m/s
277.4 K, 187.1 kPa | 108.99 m/s
277.4 K, 217.3 kPa | 108.05 m/s
277.4 K, 242.9 kPa | 107.24 m/s
277.4 K, 250.1 kPa | 107.02 m/s
277.4 K, 272.5 kPa | 106.29 m/s
282.7 K, 70.4 kPa | 113.54 m/s
282.7 K, 81.2 kPa | 113.28 m/s
282.7 K, 91 kPa | 113 m/s
282.7 K, 101.6 kPa | 112.71 m/s
282.7 K, 115.6 kPa | 112.32 m/s
282.7 K, 134.3 kPa | 111.82 m/s
282.7 K, 163 kPa | 111.01 m/s
282.7 K, 191.1 kPa | 110.22 m/s
282.7 K, 222 kPa | 109.31 m/s
282.7 K, 248.3 kPa | 108.54 m/s
282.7 K, 255.6 kPa | 108.32 m/s
282.7 K, 278.6 kPa | 107.62 m/s
287.9 K, 71.8 kPa | 114.63 m/s
287.9 K, 82.7 kPa | 114.36 m/s
287.9 K, 92.8 kPa | 114.11 m/s
287.9 K, 103.6 kPa | 113.84 m/s
287.9 K, 117.9 kPa | 113.46 m/s
287.9 K, 136.9 kPa | 112.97 m/s
287.9 K, 166.3 kPa | 112.19 m/s
287.9 K, 195 kPa | 111.42 m/s
287.9 K, 226.7 kPa | 110.56 m/s

Reference: the NIST ThermoML archive (doi:10.1021/acs.jced.6b00536)
